Source: ChEMBL document CHEMBL5046216, “Disrupting Tryptophan in the Central Hydrophobic Region Selectively Mitigates Immunomodulatory Activities of the Innate Defence Regulator Peptide IDR-1002” (J Med Chem, 2021)
Activity calls are given as the source filed them. No cut-off for these calls is given here.

Columns and labels:
[1] = tested on: Mus musculus; assay: Effect on MCP1 level in dust-mite-induced BALB/c mouse model of airway inflammation assessed as greater than 2 fold induction at 6 mg/kg, sc administered for 2 weeks and measured 24 hrs post-HDM challenge by MSD multiplex assay; type: functional, organism-based
[2] = tested on: Mus musculus; assay: Antiinflammatory activity in house dust-mite-induced BALB/c mouse model of airway inflammation assessed as suppression of IL-33 abundance in lung tissue lysate at 6 mg/kg, sc administered for 2 weeks and measured 24 hrs post-HDM challenge by ELISA; type: functional
[3] = tested on: Mus musculus; assay: Effect on IL-17A level in dust-mite-induced BALB/c mouse model of airway inflammation assessed as greater than 2 fold induction at 6 mg/kg, sc administered for 2 weeks and measured 24 hrs post-HDM challenge by MSD multiplex assay; type: functional, organism-based
[4] = tested on: Mus musculus; assay: Effect on IL-31 level in dust-mite-induced BALB/c mouse model of airway inflammation assessed as greater than 2 fold induction at 6 mg/kg, sc administered for 2 weeks and measured 24 hrs post-HDM challenge by MSD multiplex assay; type: functional, organism-based
[5] = tested on: Mus musculus; assay: Effect on IL-23 level in dust-mite-induced BALB/c mouse model of airway inflammation assessed as greater than 2 fold induction at 6 mg/kg, sc administered for 2 weeks and measured 24 hrs post-HDM challenge by MSD multiplex assay; type: functional, organism-based
[6] = tested on: Mus musculus; assay: Effect on MIP3alpha level in dust-mite-induced BALB/c mouse model of airway inflammation assessed as greater than 2 fold induction at 6 mg/kg, sc administered for 2 weeks and measured 24 hrs post-HDM challenge by MSD multiplex assay; type: functional, organism-based
[7] = tested on: Mus musculus; assay: Effect on TNF 1 level in dust-mite-induced BALB/c mouse model of airway inflammation assessed as greater than 2 fold induction at 6 mg/kg, sc administered for 2 weeks and measured 24 hrs post-HDM challenge by MSD multiplex assay; type: functional, organism-based
[8] = tested on: Mus musculus; assay: Effect on IL-12p70 level in dust-mite-induced BALB/c mouse model of airway inflammation assessed as greater than 2 fold induction at 6 mg/kg, sc administered for 2 weeks and measured 24 hrs post-HDM challenge by MSD multiplex assay; type: functional, organism-based
[9] = tested on: Mus musculus; assay: Effect on IL-10 level in dust-mite-induced BALB/c mouse model of airway inflammation assessed as greater than 2 fold induction at 6 mg/kg, sc administered for 2 weeks and measured 24 hrs post-HDM challenge by MSD multiplex assay; type: functional, organism-based
[10] = tested on: Mus musculus; assay: Effect on KC 10 level in dust-mite-induced BALB/c mouse model of airway inflammation assessed as greater than 2 fold induction at 6 mg/kg, sc administered for 2 weeks and measured 24 hrs post-HDM challenge by MSD multiplex assay; type: functional, organism-based
[11] = tested on: Mus musculus; assay: Effect on IL-5 level in dust-mite-induced BALB/c mouse model of airway inflammation assessed as greater than 2 fold induction at 6 mg/kg, sc administered for 2 weeks and measured 24 hrs post-HDM challenge by MSD multiplex assay; type: functional, organism-based
[12] = tested on: Mus musculus; assay: Effect on IL-2 level in dust-mite-induced BALB/c mouse model of airway inflammation assessed as greater than 2 fold induction at 6 mg/kg, sc administered for 2 weeks and measured 24 hrs post-HDM challenge by MSD multiplex assay; type: functional, organism-based
[13] = Retention time of the compound by HPLC analysis; type: physicochemical
[14] = tested on: HBEC3-KT; assay: Cytotoxicity against human HBEC3-KT incubated for 24 hrs by LDH assay; type: functional
[15] = tested on: HBEC3-KT; assay: Immunomodulatory activity in human HBEC3-KT cells assessed as suppression of INFgamma-induced IL-33 at 10 uM preincubated for 30 mins followed by INFgamma stimulation and measured after 24 hrs by Western blot analysis; type: functional
[16] = tested on: HBEC3-KT; assay: Antiinflammatory activity in INFgamma-induced MCP1 expressed in human HBEC3-KT cells assessed as fold change measured after 24 hrs by ELISA relative to control; type: functional
[17] = tested on: HBEC3-KT; assay: Antiinflammatory activity in human HBEC3-KT cells assessed as fold increase in STC1 expression at 10 uM measured after 24 hrs by ELISA relative to control; type: functional
[18] = Stability of the compound in human HBEC3-KT cells assessed as compound degradation ay 10 uM measured after 16 hrs by FRET assay relative to control; type: functional
[19] = tested on: Mus musculus; assay: Antiinflammatory activity in house dust-mite-induced BALB/c mouse model of airway inflammation assessed as suppression of total neutrophil count in BALF at 6 mg/kg, sc administered for 2 weeks and measured 24 hrs post-HDM challenge by Wright-Giemsa staining based microscopy; type: functional
[20] = tested on: Mus musculus; assay: Antiinflammatory activity in house dust-mite-induced BALB/c mouse model of methacholine-induced airway hyperreactivity assessed as reduction in methacholine-induced newtonian resistance at 6 mg/kg , ip administered for 2 weeks after methacholine-stimulation at 50 mg/ml measured 24 hrs post-HDM challenge; type: functional; set-up: scale not given: the % may be the effect or the level left
[21] = tested on: Mus musculus; assay: Antiinflammatory activity in house dust-mite-induced BALB/c mouse model of methacholine-induced airway hyperreactivity assessed as reduction in methacholine-induced tissue elastance at 6 mg/kg , ip administered for 2 weeks after methacholine-stimulation at 50 mg/ml measured 24 hrs post-HDM challenge; type: functional; set-up: scale not given: the % may be the effect or the level left
[22] = tested on: Mus musculus; assay: Antiinflammatory activity in house dust-mite-induced BALB/c mouse model of methacholine-induced airway hyperreactivity assessed as reduction in methacholine-induced newtonian resistance at 6 mg/kg , ip administered for 2 weeks after methacholine-stimulation at 12 mg/ml measured 24 hrs post-HDM challenge; type: functional, organism-based
[23] = tested on: Mus musculus; assay: Antiinflammatory activity in house dust-mite-induced BALB/c mouse model of methacholine-induced airway hyperreactivity assessed as reduction in methacholine-induced tissue damping at 6 mg/kg , ip administered for 2 weeks after methacholine-stimulation at 12 mg/ml measured 24 hrs post-HDM challenge; type: functional, organism-based
[24] = tested on: Mus musculus; assay: Antiinflammatory activity in house dust-mite-induced BALB/c mouse model of methacholine-induced airway hyperreactivity assessed as reduction in methacholine-induced tissue elastance at 6 mg/kg , ip administered for 2 weeks after methacholine-stimulation at 12 mg/ml measured 24 hrs post-HDM challenge; type: functional, organism-based
[25] = tested on: HBEC3-KT; assay: Antiinflammatory activity in human HBEC3-KT cells assessed as fold increase in IL-1RA expression at 10 uM measured after 24 hrs by ELISA relative to control; type: functional
[26] = tested on: Mus musculus; assay: Effect on IFNgamma level in dust-mite-induced BALB/c mouse model of airway inflammation assessed as greater than 2 fold induction at 6 mg/kg, sc administered for 2 weeks and measured 24 hrs post-HDM challenge by MSD multiplex assay; type: functional, organism-based
[27] = tested on: Mus musculus; assay: Effect on IL-17AF level in dust-mite-induced BALB/c mouse model of airway inflammation assessed as greater than 2 fold induction at 6 mg/kg, sc administered for 2 weeks and measured 24 hrs post-HDM challenge by MSD multiplex assay; type: functional, organism-based
[28] = tested on: Mus musculus; assay: Effect on MIP1alpha level in dust-mite-induced BALB/c mouse model of airway inflammation assessed as greater than 2 fold induction at 6 mg/kg, sc administered for 2 weeks and measured 24 hrs post-HDM challenge by MSD multiplex assay; type: functional, organism-based
[29] = tested on: Mus musculus; assay: Effect on IP10 level in dust-mite-induced BALB/c mouse model of airway inflammation assessed as greater than 2 fold induction at 6 mg/kg, sc administered for 2 weeks and measured 24 hrs post-HDM challenge by MSD multiplex assay; type: functional, organism-based

H-VQRWLIVRRIRK-OH
Activity [1]: inactive | Activity [2]: inactive | Activity [3]: inactive | Activity [4]: inactive | Activity [5]: inactive | Activity [6]: inactive | Activity [7]: inactive | Activity [8]: inactive | Activity [9]: inactive | Activity [10]: inactive | Activity [11]: inactive | Activity [12]: inactive | Retention_time [13]: 14.04 min | Activity [14]: inactive | Activity [15]: inactive | fold change (FC) [16]: inactive | fold change (FC) [17]: inactive | Activity [18]: <5% | Activity [19]: inactive | Activity [20]: 39% | Activity [21]: 63% | Activity [22]: Active | Activity [23]: Active | Activity [24]: Active | Activity [25]: inactive | Activity [26]: inactive | Activity [27]: inactive | Activity [28]: inactive | Activity [29]: inactive

H-VQRWLIVWRIRK-OH
Activity [1]: inactive | Activity [2]: >40% | Activity [3]: inactive | Activity [4]: inactive | Activity [5]: inactive | Activity [6]: inactive | Activity [7]: inactive | Activity [8]: inactive | Activity [9]: inactive | Activity [10]: inactive | Activity [11]: inactive | Activity [12]: inactive | Retention_time [13]: 16.16 min | Activity [14]: <=15% | Activity ([15]; 0.5 h): 85% | fold change (FC) [16]: 3.8 | fold change (FC) [17]: 4 | Activity [18]: <5% | Activity [19]: 60% | Activity [20]: Active | Activity [21]: Active | Activity [22]: Active | Activity [23]: Active | Activity [24]: Active | fold change (FC) [25]: 2.6 | Activity [26]: inactive | Activity [27]: inactive | Activity [28]: inactive | Activity [29]: inactive
